Test results reported in patent US5886051A, “Methods and compositions for the treatment of neurodegeneration” (University Of Florida Research Foundation, Inc., priority 1995, dated 1999).

Test system: N-methyl-D-aspartate receptor complex
Assay: [3H]MK-801 binding to rat cortical membranes with excess L-glutamate and glycine, modulated by polyamines
Conditions: for [3H]MK-801 binding relative to "100% Control": 100 μM L-Glu, 100 μM Gly, 2 nM [3H]MK-801, mean ± SD; for effect on [3H]MK-801 binding: at 100 μm; for concentration above which the polyamine is antagonistic: piperidine polyamines, tested 0.05-1,000 μM
From the text: Data are plotted as means ±standard deviation for four separate experiments on each tetraamine: (--.tangle-solidup.--) SPM (n=4), (.largecircle.) DMNSPM (n=4), (.circle-solid.) DMHSPM (n=4), (.rect-hollow.) DENSPM (n=4), (.box-solid.) DEHSPM (N=4), (.increment.) DBHSPM (n=4) and (--.tangle-solidup.--) BAHSPM (n=4).
Cerebral cortices from young male Sprague-Dawley rats (200-300 g) were homogenized with 10 volumes of ice-cold 0.32M sucrose using a motor-driven glass/Teflon homogenizer. The homogenate was centrifuged at 1,000 g for 10 minutes. The 1,000 g pellet was re-suspended in buffer A (5 mM Tris-HCl, pH 7.7 at 4° C.) and centrifuged at 8,000 g for 20 minutes. The supernatant and upper buffy coat of the pellet were combined and centrifuged at 50,000 g for 20 minutes. The pellet was then re-suspended in 10 volumes of buffer A and homogenized using high-intensity ultrasound and centrifuged at 50,000 g, discarding the supernatant. The pellet was washed in this manner an additional three times and stored as a frozen suspension at […] for at least 18 hours, but no longer than two weeks, before use.
For binding experiments, frozen membranes were thawed, pelleted at 50,000 g for 20 minutes and washed as described above, except that 20 volumes of buffer A were used for re-suspension, for a total of five times. The final pellet was re-suspended in buffer B (5 mM Tris-HCl, pH 7.5 at 23° C.).
Binding assays were performed in triplicate at 23° C. for 1 hour and were terminated by filtration through Whatman GF/B glass fiber filters followed by three 5.0 ml rinses of ice-cold buffer B using a Brandel M-48 cell harvester.

Compound	[3H]MK-801 binding relative to "100% Control" (1 μM tetraamine) [%]	[3H]MK-801 binding relative to "100% Control" (10 μM tetraamine) [%]	other results
CCNCCCCNCCCCNCCCCNCC [DEHSPM, diethylhomospermine]	114.3±4.5	53.9±6.0	–
C(CNC1CCNCC1)CNC1CCNCC1 [PIP[3,3,3]]	–	–	effect on [3H]MK-801 binding: still agonistic
C(CCNC1CCNCC1)CNC1CCNCC1 [PIP[3,4,3]]	–	–	effect on [3H]MK-801 binding: agonistic
C(CCNCC1CCNCC1)CNCC1CCNCC1 [PIP[4,4,4], N,N'-1,4-Butanediylbis(4-piperidinemethanamine)]	–	–	concentration above which the polyamine is antagonistic: above 12 μm
C(CCNCCC1CCNCC1)CNCCC1CCNCC1 [PIP[5,4,5], N,N'-1,4-Butanediylbis(4-piperidineethanamine)]	–	–	concentration above which the polyamine is antagonistic: above 13 μm
Cl.Cl.Cl.Cl.NCCCNCCCCNCCCN [SPM, Spermine tetrahydrochloride, reference compound]	123.2±5.0	–	[3H]MK-801 binding relative to "100% Control" (500 μM tetraamine): 82.0±8.1%; [3H]MK-801 binding relative to "100% Control" (1,000 μM tetraamine, 1000 µM): 78.9±8.3%; effect on [3H]MK-801 binding relative to "100% Control" (at 500 and 1,000 μM): moderate antagonism

Second part, led by results:

[3H]MK-801 binding relative to "100% Control" (1 μM tetraamine) [%]	[3H]MK-801 binding relative to "100% Control" (10 μM tetraamine) [%]	Compound	other results
106.5±8.0	33.0±4.0	CC(C)(C)NCCCCNCCCCNCCCCNC(C)(C)C [DBHSPM]	–
113.7±5.9	63.7±5.9	CCNCCCNCCCNCCCNCC [DENSPM]	–
117.8±8.1	76.3±7.0	CNCCCCNCCCCNCCCCNC [DMHSPM]	–
120.6±3.1	87.9±6.0	CNCCCNCCCNCCCNC [DMNSPM]	–
